Converted amounts (≈) assume the structure as drawn. Where two headings read alike, the source gives them in different places. One block for each compound: values may come before it.
Assays:
[1] = Drug solubility; type: physicochemical

amount of polymer soluble at pH 6.5: less than 0.001 mg/mL
Compound: Ethylcellulose

solubility ([1]; MFD solution, read-out: solubility in MFD solution): ~40 µg/mL (≈ 105 µM)
Compound: Cc1ccc(-c2cc(C(F)(F)F)nn2-c2ccc(S(N)(=O)=O)cc2)cc1 [Drug 1, 4-[5-(4-methylphenyl)-3-(trifluoromethyl)-1H-pyrazol-1-yl]benzenesulfonamide]

solubility ([1]; water, read-out: solubility in water): < 0.1 µg/mL
Compound: CCOC(=O)N1c2ccc(C(F)(F)F)cc2[C@@H](N(Cc2cc(C(F)(F)F)cc(C(F)(F)F)c2)C(=O)OC)C[C@H]1CC [Drug 2, [2R,4S]4-[(3,5-bis-trifluoromethyl-benzyl)-methoxycarbonyl-amino]-2-ethyl-6-trifluoromethyl-3,4-dihydro-2H-quinoline-1-carboxylic acid ethyl ester]

— patent US9724362B2, “Pharmaceutical compositions comprising nanoparticles and a resuspending material” (Bend Research, Inc., priority 2007, dated 2017)
